Assay results reported in patent US20080058356A1, “2,6 Bisheteroaryl-4-Aminopyrimidines as Adenosine Receptor Antagonists” (Neurocrine Biosciences, Inc., priority 2003, published 2008).

| SMILES | melting point [°C] |
| --- | --- |
| c1ccc([C@H]2C[C@@H]2Nc2cc(-c3ccco3)nc(-c3nccs3)n2)cc1 (relative stereo) [Example 198, 6-(2-Furyl)-N-[(1S*,2R*)-2-phenylcyclopropyl]-2-(1,3-thiazol-2-yl)pyrimidin-4-amine] | 90 to 91.9 |
| COc1ccc(CCNc2cc(-c3ccco3)nc(-c3nccs3)n2)cc1OC [Example 196, N-[2-(3,4-Dimethoxyphenyl)ethyl]-6-(2-furyl)-2-(1,3-thiazol-2-yl)pyrimidin-4-amine] | 83 to 83.8 |
| CCC(=O)Nc1cc(-c2cccnc2)nc(-c2ccco2)n1 [Example 54, N-[2-(2-Furyl)-6-pyridin-3-ylpyrimidin-4-yl]propanamide] | 251.8 to 253.2 |
| Nc1cc(-c2cccnc2)nc(-c2ccco2)n1 [Example 55, 2-(2-Furyl)-6-pyridin-3-ylpyrimidin-4-amine] | 232.7 to 233.1 |
| OCCCNc1cc(-n2cccn2)nc(-c2cccs2)n1 [Example 131, 3-{[6-(1H-Pyrazol-1-yl)-2-(2-thienyl)pyrimidin-4-yl]amino}propan-1-ol] | 129.9 to 130.8 |
| COc1ccc(CCNc2cc(-n3cccn3)nc(-c3cccs3)n2)cc1OC [Example 134, N-[2-(3,4-Dimethoxyphenyl)ethyl]-6-(1H-pyrazol-1-yl)-2-(2-thienyl)pyrimidin-4-amine] | 116.2 to 117.3 |
| Nc1cc(-n2cccn2)nc(-c2ccc(Cl)o2)n1 [Example 50, 2-(5-Chloro-2-furyl)-6-(1H-pyrazol-1-yl)pyrimidin-4-amine] | 209.9 to 211 |
| c1ccc(CCNc2cc(-n3cccn3)nc(-c3ccco3)n2)nc1 [Example 125, 2-(2-Furyl)-6-(1H-pyrazol-1-yl)-N-[2-(pyridin-2-yl)ethyl]pyrimidin-4-amine] | 110.2 to 110.9 |
| CCC(=O)Nc1cc(-n2cccn2)nc(-c2ccc(Cl)o2)n1 [Example 51, N-[2-(5-Chloro-2-furyl)-6-(1H-pyrazol-1-yl)pyrimidin-4-yl]propanamide] | 189.3 to 190.1 |
| COc1ccc(COC(=O)Nc2cc(-n3cccn3)nc(-c3ccco3)n2)cc1OC [Example 202, 3,4-Dimethoxybenzyl [2-(2-furyl)-6-(1H-pyrazol-1-yl)pyrimidin-4-yl]carbamate] | 147.8 to 148.5 |
| c1coc(-c2nc(NCC3CC3)cc(-n3cccn3)n2)c1 [Example 119, N-(Cyclopropylmethyl)-2-(2-furyl)-6-(1H-pyrazol-1-yl)pyrimidin-4-amine] | 100.9 to 101.7 |
| NCCNc1cc(-n2cccn2)nc(-c2ccco2)n1 [Example 122, N-[2-(2-Furyl)-6-(1H-pyrazol-1-yl)pyrimidin-4-yl]ethane-1,2-diamine] | 104.1 to 105.1 |
| NCCNc1cc(-n2cccn2)nc(-c2cccs2)n1 [Example 132, N-(2-Aminoethyl)-N-[6-(1H-pyrazol-1-yl)-2-(2-thienyl)pyrimidin-4-yl]amine] | 146.6 to 147.1 |
